Eight molecules from ChEMBL document CHEMBL5465560, “Selectivity Literature for EUbOPEN Chemogenomic Library” (2024) can be followed below.

Structures are written as SMILES.

Assay [1] addresses Tyrosine-protein kinase Fgr (Homo sapiens) (UniProt P09769). To be noted: at 10 µM.
Assay [2] addresses T1, Cytoplasmic tyrosine-protein kinase BMX (Homo sapiens) (UniProt P51813).
T1 sequence (whole entry): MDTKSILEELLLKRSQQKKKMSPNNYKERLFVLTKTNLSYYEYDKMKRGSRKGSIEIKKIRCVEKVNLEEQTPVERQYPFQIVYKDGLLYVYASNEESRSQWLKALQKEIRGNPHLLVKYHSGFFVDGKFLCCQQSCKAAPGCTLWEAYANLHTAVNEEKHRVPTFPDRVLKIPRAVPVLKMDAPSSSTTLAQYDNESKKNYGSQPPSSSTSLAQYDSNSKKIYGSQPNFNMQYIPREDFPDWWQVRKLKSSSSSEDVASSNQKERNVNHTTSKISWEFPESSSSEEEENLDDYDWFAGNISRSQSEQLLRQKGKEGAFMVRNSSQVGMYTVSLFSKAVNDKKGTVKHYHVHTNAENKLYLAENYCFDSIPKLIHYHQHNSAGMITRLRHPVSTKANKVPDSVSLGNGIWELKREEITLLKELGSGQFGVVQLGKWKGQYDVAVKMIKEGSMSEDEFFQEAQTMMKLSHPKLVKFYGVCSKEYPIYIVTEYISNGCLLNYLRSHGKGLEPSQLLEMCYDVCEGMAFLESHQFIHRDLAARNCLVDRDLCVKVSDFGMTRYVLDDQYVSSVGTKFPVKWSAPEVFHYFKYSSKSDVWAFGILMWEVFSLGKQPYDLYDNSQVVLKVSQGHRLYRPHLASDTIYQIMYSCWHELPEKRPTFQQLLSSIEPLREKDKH
Description: Selectivity interaction (Kinase screening (Nanosyn)) EUB0000604a BMX.

Assay [3] concerns the target T2, Serine/threonine-protein kinase TAO2 (Homo sapiens) (UniProt Q9UL54).
T2 sequence (whole entry): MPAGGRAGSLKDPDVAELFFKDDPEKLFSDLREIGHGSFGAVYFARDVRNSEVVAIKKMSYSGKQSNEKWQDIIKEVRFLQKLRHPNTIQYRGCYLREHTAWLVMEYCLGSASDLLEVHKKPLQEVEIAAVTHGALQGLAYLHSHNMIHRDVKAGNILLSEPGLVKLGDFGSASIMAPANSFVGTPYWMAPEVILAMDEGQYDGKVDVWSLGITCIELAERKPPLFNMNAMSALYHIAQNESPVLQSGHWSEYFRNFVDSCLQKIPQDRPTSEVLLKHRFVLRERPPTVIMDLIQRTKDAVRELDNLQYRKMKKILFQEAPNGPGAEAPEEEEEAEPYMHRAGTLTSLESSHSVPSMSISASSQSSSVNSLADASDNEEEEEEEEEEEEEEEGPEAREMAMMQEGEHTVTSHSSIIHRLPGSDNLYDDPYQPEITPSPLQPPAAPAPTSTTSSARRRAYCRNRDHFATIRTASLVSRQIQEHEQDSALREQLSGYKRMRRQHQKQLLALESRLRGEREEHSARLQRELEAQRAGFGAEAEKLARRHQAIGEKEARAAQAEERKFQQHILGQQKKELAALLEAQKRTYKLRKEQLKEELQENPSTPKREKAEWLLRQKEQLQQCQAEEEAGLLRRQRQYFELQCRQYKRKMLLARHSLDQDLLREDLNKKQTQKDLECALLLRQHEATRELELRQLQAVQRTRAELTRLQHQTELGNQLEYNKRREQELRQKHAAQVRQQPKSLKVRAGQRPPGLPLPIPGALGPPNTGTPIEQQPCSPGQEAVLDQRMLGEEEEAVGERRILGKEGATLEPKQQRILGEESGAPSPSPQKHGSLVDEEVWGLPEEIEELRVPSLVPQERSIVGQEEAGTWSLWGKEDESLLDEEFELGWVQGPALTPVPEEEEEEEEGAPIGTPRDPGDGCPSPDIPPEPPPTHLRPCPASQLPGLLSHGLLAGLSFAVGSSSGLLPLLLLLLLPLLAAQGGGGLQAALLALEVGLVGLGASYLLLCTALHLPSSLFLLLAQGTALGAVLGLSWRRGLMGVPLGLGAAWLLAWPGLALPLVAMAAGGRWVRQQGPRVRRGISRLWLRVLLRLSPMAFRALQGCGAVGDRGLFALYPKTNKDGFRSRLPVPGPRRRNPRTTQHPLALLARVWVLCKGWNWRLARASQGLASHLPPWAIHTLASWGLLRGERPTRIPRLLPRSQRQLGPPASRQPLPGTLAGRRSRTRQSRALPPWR
In words: Selectivity interaction (KinomeScan (DiscoverX)) EUB0000666a TAOK2. Conditions: at 10 µM.

For assay [4], the system named is RAF proto-oncogene serine/threonine-protein kinase (Homo sapiens), P04049 [Y340D,Y341D]. Description: Selectivity interaction (Kinase panel (Z-LYTE Assay)) EUB0001632a RAF1. Conditions: at 10 µM.
Sequence of RAF proto-oncogene serine/threonine-protein kinase (Homo sapiens), P04049 [Y340D,Y341D] (P04049 whole entry Y340D/Y341D): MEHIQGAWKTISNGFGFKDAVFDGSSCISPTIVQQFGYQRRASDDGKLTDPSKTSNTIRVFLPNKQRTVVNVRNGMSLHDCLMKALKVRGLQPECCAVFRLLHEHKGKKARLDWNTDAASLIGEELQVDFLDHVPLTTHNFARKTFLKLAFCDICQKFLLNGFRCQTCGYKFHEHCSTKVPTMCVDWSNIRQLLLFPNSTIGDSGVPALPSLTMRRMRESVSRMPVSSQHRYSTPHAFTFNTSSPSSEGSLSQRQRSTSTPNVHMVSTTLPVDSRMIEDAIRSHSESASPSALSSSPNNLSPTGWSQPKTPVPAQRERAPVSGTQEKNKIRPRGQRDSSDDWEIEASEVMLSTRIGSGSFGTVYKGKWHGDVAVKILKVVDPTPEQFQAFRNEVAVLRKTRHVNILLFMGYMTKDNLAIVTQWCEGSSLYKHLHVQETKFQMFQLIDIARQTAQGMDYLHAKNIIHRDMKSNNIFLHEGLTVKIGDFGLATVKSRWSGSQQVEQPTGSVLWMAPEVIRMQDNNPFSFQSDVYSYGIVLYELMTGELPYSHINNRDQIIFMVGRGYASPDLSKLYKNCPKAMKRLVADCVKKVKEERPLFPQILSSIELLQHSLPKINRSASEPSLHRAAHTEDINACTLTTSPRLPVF
The target of assay [5] is Dual specificity tyrosine-phosphorylation-regulated kinase 1A (Homo sapiens, UniProt Q13627). Description: Selectivity interaction (SelectScreen profiling (Invitrogen)) EUB0000607a DYRK1A. Conditions: at 2 µM.
Assay [6] deals with Ribosomal protein S6 kinase alpha-4 (Homo sapiens) (UniProt O75676). Description: Selectivity interaction (KinomeScan (DiscoverX)) EUB0000607a RPS6KA4. Conditions: at 10 µM.
Sequence of Ribosomal protein S6 kinase alpha-4 (Homo sapiens) (O75676 whole entry, looked up): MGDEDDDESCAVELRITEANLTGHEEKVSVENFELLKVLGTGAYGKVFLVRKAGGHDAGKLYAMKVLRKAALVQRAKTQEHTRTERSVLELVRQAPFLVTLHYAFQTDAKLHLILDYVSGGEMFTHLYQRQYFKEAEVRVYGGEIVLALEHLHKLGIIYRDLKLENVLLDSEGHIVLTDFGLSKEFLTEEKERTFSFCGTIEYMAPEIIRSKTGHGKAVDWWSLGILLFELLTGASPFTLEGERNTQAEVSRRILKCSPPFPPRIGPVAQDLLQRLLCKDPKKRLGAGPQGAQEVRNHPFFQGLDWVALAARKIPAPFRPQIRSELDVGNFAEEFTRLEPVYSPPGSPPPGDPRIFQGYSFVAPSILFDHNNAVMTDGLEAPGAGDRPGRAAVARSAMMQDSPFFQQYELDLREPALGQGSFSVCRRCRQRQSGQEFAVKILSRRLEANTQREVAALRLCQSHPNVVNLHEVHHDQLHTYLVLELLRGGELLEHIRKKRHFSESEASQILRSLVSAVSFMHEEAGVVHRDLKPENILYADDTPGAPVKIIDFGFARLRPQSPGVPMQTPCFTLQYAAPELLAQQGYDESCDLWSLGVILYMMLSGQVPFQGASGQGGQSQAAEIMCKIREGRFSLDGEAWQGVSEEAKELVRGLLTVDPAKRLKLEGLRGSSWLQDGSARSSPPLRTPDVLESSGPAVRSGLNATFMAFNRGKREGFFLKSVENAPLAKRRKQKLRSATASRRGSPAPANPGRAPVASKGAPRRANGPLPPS
In assay [7] the target is Bromodomain testis-specific protein (Homo sapiens) (UniProt Q58F21). Description: Selectivity interaction (Human bromodomain panel (DSF assay)) EUB0000233b BRDT.
Assay [8] has as its target Serine/threonine-protein kinase 16 (Homo sapiens, UniProt O75716). Description: Selectivity interaction (ActivX KiNativ screen (ex vivo kinase selectivity in human PBMCs)) EUB0001619a STK16. The assay is classed as cell-based. To be noted: PBMC, at 1 µM.
Assay [9] concerns the target Cyclin-dependent kinase 14 (Homo sapiens) (UniProt O94921). In words: Selectivity interaction (Kinase panel (KiNativ target engagement assay in Jurkat cells)) EUB0001635a CDK14. Format: cell-based. To be noted: at 1 µM.

Sequence of Tyrosine-protein kinase Fgr (Homo sapiens) (P09769 2-529 limits assumed): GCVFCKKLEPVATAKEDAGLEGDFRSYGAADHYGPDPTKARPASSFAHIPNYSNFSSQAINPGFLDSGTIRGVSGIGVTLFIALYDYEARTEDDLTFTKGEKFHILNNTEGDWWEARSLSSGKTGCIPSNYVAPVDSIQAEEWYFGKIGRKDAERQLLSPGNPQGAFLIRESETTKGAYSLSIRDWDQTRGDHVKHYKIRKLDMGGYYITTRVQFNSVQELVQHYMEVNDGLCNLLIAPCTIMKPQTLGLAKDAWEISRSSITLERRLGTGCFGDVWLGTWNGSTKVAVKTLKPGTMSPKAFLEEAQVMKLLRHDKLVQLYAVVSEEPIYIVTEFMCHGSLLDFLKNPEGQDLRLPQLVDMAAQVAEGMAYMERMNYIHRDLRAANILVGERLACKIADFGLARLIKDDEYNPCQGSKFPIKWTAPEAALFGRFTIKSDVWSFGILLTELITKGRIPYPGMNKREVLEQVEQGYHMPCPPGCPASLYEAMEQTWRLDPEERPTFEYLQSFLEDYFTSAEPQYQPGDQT
Sequence of Serine/threonine-protein kinase 16 (O75716 whole entry): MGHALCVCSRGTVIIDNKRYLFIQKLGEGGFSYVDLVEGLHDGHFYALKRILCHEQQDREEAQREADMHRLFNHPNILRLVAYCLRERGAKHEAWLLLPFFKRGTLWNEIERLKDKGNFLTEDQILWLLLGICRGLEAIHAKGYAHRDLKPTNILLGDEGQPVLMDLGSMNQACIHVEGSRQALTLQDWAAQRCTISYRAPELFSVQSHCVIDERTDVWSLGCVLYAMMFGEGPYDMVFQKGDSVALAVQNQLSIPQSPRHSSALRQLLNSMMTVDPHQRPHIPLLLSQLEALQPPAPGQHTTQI
Sequence of Cyclin-dependent kinase 14 (Homo sapiens) (O94921 whole entry): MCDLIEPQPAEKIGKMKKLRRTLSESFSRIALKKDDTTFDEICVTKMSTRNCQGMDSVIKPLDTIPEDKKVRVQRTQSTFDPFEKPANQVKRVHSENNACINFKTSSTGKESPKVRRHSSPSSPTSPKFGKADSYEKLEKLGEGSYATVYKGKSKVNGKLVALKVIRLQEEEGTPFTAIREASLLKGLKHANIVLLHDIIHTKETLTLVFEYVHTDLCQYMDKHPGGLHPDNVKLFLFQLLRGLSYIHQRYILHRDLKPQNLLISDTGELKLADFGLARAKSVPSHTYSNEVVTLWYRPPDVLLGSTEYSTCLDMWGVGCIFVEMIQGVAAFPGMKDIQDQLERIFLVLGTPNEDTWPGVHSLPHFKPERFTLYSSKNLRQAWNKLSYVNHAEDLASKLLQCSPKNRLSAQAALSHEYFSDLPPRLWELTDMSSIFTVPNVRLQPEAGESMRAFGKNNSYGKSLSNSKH

Regarding `Cc1cc([C@@H](C)Nc2ccccc2C(=O)O)c2nc(N3CCOCC3)cc(=O)n2c1` [AZD-6482], the % of control in assay [1] is 95%.
For `Cc1cnc(Nc2ccc(F)cc2Cl)nc1-c1c[nH]c(C(=O)N[C@H](CO)c2cccc(Cl)c2)c1`, in assay [2], the % of inhibition was 3%.
On to `O=C(NOC[C@H](O)CO)c1ccc(F)c(F)c1Nc1ccc(I)cc1F`, for which the % of control in assay [3] was found to be 100%.
Regarding `Cn1cc(-n2cnc3c(NCc4nc5cc(Cl)c(Cl)cc5[nH]4)nc(N4CCOCC4)nc32)cn1`, the % of control in assay [4] is -1.53%.
`CNC(=O)Nc1ccc(-c2nc(N3CC4CCC(C3)O4)c3cnn(C4CCC5(CC4)OCCO5)c3n2)cc1` gave a % of inhibition in assay [5] of 2%. The % of control in assay [6] came to 90%.
`CN(C)CCCOc1ccc(-c2cc(NCCCn3cccn3)nc(S(C)(=O)=O)n2)cc1`: the dTM in assay [7] is < 2 K.
Take `N#Cc1cccc(-c2c[nH]c3ncnc(N4CCOCC4)c23)c1`: the % of inhibition in assay [8] was 63%.
As for `C=CC(=O)Nc1ccc(C(=O)Nc2[nH]nc3c2CN(C(=O)N[C@H](CN(C)C)c2ccccc2)C3(C)C)cc1`, the % of engagement in assay [9] was -33.3%.
